The target of data set [1] is T1, ACAT2 (Mus musculus, UniProt O88908).
T1 construct: The resulting sediment was collected as a microsome fraction; from tissue; host or cells: mouse liver (hepatic microsome membrane fraction)
T1 sequence (O88908 1-525): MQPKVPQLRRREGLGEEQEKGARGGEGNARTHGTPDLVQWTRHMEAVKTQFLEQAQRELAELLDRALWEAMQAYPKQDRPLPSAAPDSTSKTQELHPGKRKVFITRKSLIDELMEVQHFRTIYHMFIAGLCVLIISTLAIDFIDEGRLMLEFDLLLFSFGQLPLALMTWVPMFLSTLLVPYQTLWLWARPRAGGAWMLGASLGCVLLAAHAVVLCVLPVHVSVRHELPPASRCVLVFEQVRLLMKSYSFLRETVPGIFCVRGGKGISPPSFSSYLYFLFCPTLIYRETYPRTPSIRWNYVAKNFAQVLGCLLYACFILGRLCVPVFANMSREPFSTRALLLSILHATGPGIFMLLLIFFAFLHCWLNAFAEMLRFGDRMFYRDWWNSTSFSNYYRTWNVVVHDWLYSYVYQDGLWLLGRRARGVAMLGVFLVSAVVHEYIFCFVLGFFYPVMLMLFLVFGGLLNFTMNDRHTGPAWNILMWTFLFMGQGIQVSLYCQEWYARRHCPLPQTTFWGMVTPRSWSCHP
Put plainly: Measurement of ACAT2-inhibiting activity (murine hepatic microsome, [14C]cholesteryl oleate formation). In kind it is biochemical. Particulars: for IC50: murine hepatic microsome membrane fraction, 5 min at 37° C., read-out: Inhibitory activity (concentration required for 50% inhibition of ACAT 2 = IC50); for Specific activity ((IC50 of the test compound)/(IC50 of PRD 043)): relative to PRD 043, class symbols. As for the experimental part: The enzyme source which was used was a membrane fraction derived from murine hepatic microsome. Mouse livers were homogenized in buffer solution A (50 mM Tris HCl solution (pH 7.8), 1 mM ethylene diamine tetraacetate, and 1 mM phenylmethanesulfonyl fluoride) using a Potter-type homogenizer (Tokyo-Riko). The homogenate was centrifuged at 12000×g, and the supernatant was subjected to ultracentrifugation at 100000×g. The resulting sediment was collected as a microsome fraction, and this fraction was adjusted so as to have a protein concentration of 5 mg/mL using buffer solution A.
As a control, 10 μL of methanol were used in place of the pyripyropene derivative.
The chloroform layer was evaporated to dryness and was used to spot a thin layer chromatography plate (silica gel plate, Merck, 0.5 mm thickness). Elution for separation was carried out using hexane/diethyl ether/acetic acid (70:30:1, v/v) as an eluant.
wherein the background is the radioactivity of a thin layer chromatography plate which was not spotted.

A short description of data set [2]: Stability against metabolizing enzymes in the liver (hepatic microsome). The conditions noted are these: time until remaining amount reached 50%, 37° C.; for half-life at 6 μg/mL: female, Sprague-Dawley (SD), rat, liver microsomes, pH 7.4, Half-life; for Half-life: female SD rat hepatic microsome, 6 μg/mL, pH 7.4.

This is an account of results in patent publication US9187492B2, “Pyripyropene derivative having ACAT2 inhibiting activity and stable to metabolizing enzymes” (School Juridical Person Kitasato Institute, priority 2010, dated 2015).

In the case of `Cc1ccccc1[C@@H]1OCC2(C)C3C[C@H](OC(=O)c4ccc(C#N)cc4)[C@@]4(C)Oc5cc(-c6cccnc6)oc(=O)c5[C@H](O)C4[C@@]3(C)CC[C@@H]2O1` (some centres unmarked) [PRD125, 1,11-O-o-methylbenzylidene-7-O-p-cyanobenzoyl-1,7,11-trideacetylpyripyropene A], in data set [1], the IC50 was in the range of 0.5 to 1 nM and the “Specific activity ((IC50 of the test compound)/(IC50 of PRD 043))” value (from here on “Specific activity”) is listed as “+++ (10<specific activity≦20)”. In addition, in data set [2], the half-life at 6 μg/mL was ≥ 9 h and the Half-life is >9 h.
Regarding `Cc1ccc([C@@H]2OCC3(C)C4C[C@H](OC(=O)c5ccc(C#N)cc5)[C@@]5(C)Oc6cc(-c7cccnc7)oc(=O)c6[C@H](O)C5[C@@]4(C)CC[C@@H]3O2)cc1` (some centres unmarked) [PRD126, 1,11-O-p-methylbenzylidene-7-O-p-cyanobenzoyl-1,7,11-trideacetylpyripyropene A], in data set [1], the IC50 was 0.5 to 1 nM and the “Specific activity” value is recorded as “+++ (10<specific activity≦20)”. Moreover, in data set [2], the half-life at 6 μg/mL was ≥ 9 h and the Half-life was >9 h.
As to `CC(=O)O[C@H]1CC[C@@]2(C)C(C[C@H](OC(=O)c3ccc(C#N)cc3)[C@@]3(C)Oc4cc(-c5cccnc5)oc(=O)c4[C@H](O)C23)C1(C)COC(=O)c1ccccc1` (some centres unmarked) [PRD143, 7-O-p-cyanobenzoyl-7,11-dideacetyl-11-O-benzoylpyripyropene A], in data set [1], the IC50 fell in the range of 0.5 to 1 nM and the “Specific activity” value was “+++ (10<specific activity≦20)”. In data set [2], the half-life at 6 μg/mL was ≥ 9 h and the Half-life is reported as >9 h.
Consider `Cc1ccccc1[C@@H]1OCC2(C)C3C[C@H](OC(=O)c4ccc(F)cc4)[C@@]4(C)Oc5cc(-c6cccnc6)oc(=O)c5[C@H](O)C4[C@@]3(C)CC[C@@H]2O1` (some centres unmarked) [PRD155, 1,11-O-o-methylbenzylidene-7-O-p-fluorobenzoyl-1,7,11-trideacetylpyripyropene A], for which, in data set [1], the IC50 lay in the range of 0.5 to 1 nM and the “Specific activity” value is recorded as “+++ (10<specific activity≦20)”. In addition, in data set [2], the half-life at 6 μg/mL is ≥ 9 h and the Half-life is >9 h.
For `Cc1ccc([C@@H]2OCC3(C)C4C[C@H](OC(=O)c5ccc(F)cc5)[C@@]5(C)Oc6cc(-c7cccnc7)oc(=O)c6[C@H](O)C5[C@@]4(C)CC[C@@H]3O2)cc1` (some centres unmarked) [PRD156, 1,11-O-p-methylbenzylidene-7-O-p-fluorobenzoyl-1,7,11-trideacetylpyripyropene A] the same measures were < 0.5 nM, “++++ (20<specific activity)”, ≥ 9 h and >9 h.
For `Cc1cccc(C2OCC3(C)C(CCC4(C)C3CC(OC(=O)c3ccc(C#N)cc3)C3(C)Oc5cc(-c6cccnc6)oc(=O)c5C(O)C43)O2)c1` (centres unmarked) [PRD157, 1,11-O-m-methylbenzylidene-7-O-p-cyanobenzoyl-1,7,11-trideacetylpyripyropene A] the same measures were < 0.5 nM, “++++ (20<specific activity)”, ≥ 9 h and >9 h.
With `Cc1cccc([C@@H]2OCC3(C)C4C[C@H](OC(=O)c5ccc(F)cc5)[C@@]5(C)Oc6cc(-c7cccnc7)oc(=O)c6[C@H](O)C5[C@@]4(C)CC[C@@H]3O2)c1` (some centres unmarked) [PRD158, 1,11-O-m-methylbenzylidene-7-O-p-fluorobenzoyl-1,7,11-trideacetylpyripyropene A], in data set [1], the IC50 lay in the range of 1 to 10 nM and the “Specific activity” value is reported as “+++ (10<specific activity≦20)”. In data set [2], the half-life at 6 μg/mL was ≥ 9 h and the Half-life is on record as >9 h.
Regarding `Cc1ccc([C@@H]2OCC3(C)C4C[C@H](OC(=O)c5ccc(C#N)cc5)[C@@]5(C)Oc6cc(-c7cccnc7)oc(=O)c6[C@H](O)C5[C@@]4(C)CC[C@@H]3O2)c(C)c1` (some centres unmarked) [PRD159, 1,11-O-o,p-dimethylbenzylidene-7-O-p-cyanobenzoyl-1,7,11-trideacetylpyripyropene A], in data set [1], the IC50 was 0.5 to 1 nM and the “Specific activity” value is given as “+++ (10<specific activity≦20)”. For the same compound, in data set [2], the half-life at 6 μg/mL was ≥ 9 h and the Half-life is recorded as >9 h.
As to `Cc1ccc([C@@H]2OCC3(C)C4C[C@H](OC(=O)c5ccc(F)cc5)[C@@]5(C)Oc6cc(-c7cccnc7)oc(=O)c6[C@H](O)C5[C@@]4(C)CC[C@@H]3O2)c(C)c1` (some centres unmarked) [PRD160, 1,11-O-o,p-dimethylbenzylidene-7-O-p-fluorobenzoyl-1,7,11-trideacetylpyripyropene A], in data set [1], the IC50 was in the range of 0.5 to 1 nM and the “Specific activity” value is reported as “+++ (10<specific activity≦20)”. In data set [2], the half-life at 6 μg/mL is ≥ 9 h and the Half-life is listed as >9 h.
In the case of `COc1ccccc1[C@@H]1OCC2(C)C3C[C@H](OC(=O)c4ccc(C#N)cc4)[C@@]4(C)Oc5cc(-c6cccnc6)oc(=O)c5[C@H](O)C4[C@@]3(C)CC[C@@H]2O1` (some centres unmarked) [PRD161, 1,11-O-o-methoxybenzylidene-7-O-p-cyanobenzoyl-1,7,11-trideacetylpyripyropene A], in data set [1], the IC50 was in the range of 0.5 to 1 nM and the “Specific activity” value was “+++ (10<specific activity≦20)”. Moreover, in data set [2], the half-life at 6 μg/mL is ≥ 9 h and the Half-life was >9 h.
The corresponding values for `COc1ccccc1[C@@H]1OCC2(C)C3C[C@H](OC(=O)c4ccc(F)cc4)[C@@]4(C)Oc5cc(-c6cccnc6)oc(=O)c5[C@H](O)C4[C@@]3(C)CC[C@@H]2O1` (some centres unmarked) [PRD162, 1,11-O-o-methoxybenzylidene-7-O-p-fluorobenzoyl-1,7,11-trideacetylpyripyropene A] are 1 to 10 nM, “+++ (10<specific activity≦20)”, ≥ 9 h and >9 h.
`CC12CO[C@@H](c3ccccc3F)O[C@H]1CC[C@@]1(C)C2C[C@H](OC(=O)c2ccc(C#N)cc2)[C@@]2(C)Oc3cc(-c4cccnc4)oc(=O)c3[C@H](O)C12` (some centres unmarked) [PRD163, 1,11-O-o-fluorobenzylidene-7-O-p-cyanobenzoyl-1,7,11-trideacetylpyripyropene A]: in data set [1], the IC50 fell in the range of 0.5 to 1 nM and the “Specific activity” value is “+++ (10<specific activity≦20)”. Moreover, in data set [2], the half-life at 6 μg/mL was ≥ 9 h and the Half-life is >9 h.
As to `CC12CO[C@@H](c3ccccc3F)O[C@H]1CC[C@@]1(C)C2C[C@H](OC(=O)c2ccc(F)cc2)[C@@]2(C)Oc3cc(-c4cccnc4)oc(=O)c3[C@H](O)C12` (some centres unmarked) [PRD164, 1,11-O-o-fluorobenzylidene-7-O-p-fluorobenzoyl-1,7,11-trideacetylpyripyropene A], in data set [1], the IC50 lay within 0.5 to 1 nM and the “Specific activity” value is given as “+++ (10<specific activity≦20)”. Further, in data set [2], the half-life at 6 μg/mL was ≥ 9 h and the Half-life is >9 h.
With `CC1(COC(=O)c2ccccc2)C2C[C@H](OC(=O)c3ccc(C#N)cc3)[C@@]3(C)Oc4cc(-c5cccnc5)oc(=O)c4[C@H](O)C3[C@@]2(C)CC[C@@H]1OC(=O)c1ccccc1` (some centres unmarked) [PRD166, 7-O-p-cyanobenzoyl-1,11-O-dibenzoyl-1,7,11-trideacetylpyripyropene A], in data set [1], the IC50 was in the range of 0.5 to 1 nM and the “Specific activity” value is “+++ (10<specific activity≦20)”. Further, in data set [2], the half-life at 6 μg/mL was ≥ 9 h and the Half-life was >9 h.
